Among the data in ChEMBL document CHEMBL1134671, “Novel lead generation through hypothetical pharmacophore three-dimensional database searching: discovery of isoflavonoids as nonsteroidal inhibitors of rat 5 alpha-reductase” (J Med Chem, 2001) are IC50 values, retold here.

The structures appear in SMILES notation.

The target in the test is T1, Steroid 5-alpha-reductase (Rattus norvegicus, UniProt P24008+P31214).
T1 sequence (P24008 whole entry): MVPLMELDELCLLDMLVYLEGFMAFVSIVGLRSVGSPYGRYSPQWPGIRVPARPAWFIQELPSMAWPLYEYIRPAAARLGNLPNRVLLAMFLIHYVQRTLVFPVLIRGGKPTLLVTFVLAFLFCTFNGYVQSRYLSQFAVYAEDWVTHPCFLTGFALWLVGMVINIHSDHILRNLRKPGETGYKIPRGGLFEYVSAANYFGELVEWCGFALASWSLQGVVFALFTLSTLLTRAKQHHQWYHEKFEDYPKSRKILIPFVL
T1 sequence (P31214 whole entry): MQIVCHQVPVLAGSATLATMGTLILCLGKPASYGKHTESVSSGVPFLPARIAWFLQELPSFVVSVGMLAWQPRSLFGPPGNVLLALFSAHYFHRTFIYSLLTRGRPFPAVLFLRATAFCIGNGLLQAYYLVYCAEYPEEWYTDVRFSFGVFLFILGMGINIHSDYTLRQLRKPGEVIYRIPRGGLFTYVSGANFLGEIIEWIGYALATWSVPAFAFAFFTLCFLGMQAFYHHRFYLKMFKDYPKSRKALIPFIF
The experiment in a line: Inhibitory concentration against rat Steroid 5-alpha-reductase. It counts as protein assay.
Broadly, the IC50 is the concentration at which inhibition is half-maximal. The low end stands for higher potency, the high end for lower potency. `COc1cc2c(cc1OC)-c1c(oc3c4c(cc(O)c3c1=O)OC(C)(C)C=C4)CO2` showed an IC50 of 48.7 µM.
In turn, `CC(C)(O)C1Cc2c(ccc(-c3coc4cc5c(c(O)c4c3=O)CC(C(C)(C)O)O5)c2O)O1` (stereo not drawn) registered an IC50 of 26.2 µM.
Regarding `COc1ccc(-c2coc3c4c(cc(OC)c3c2=O)OC(C)(C)C=C4)c(OC)c1`, the IC50 came out at 30.1 µM.
`CC(C)(O)C1Cc2c(ccc(-c3coc4cc(O)cc(O)c4c3=O)c2O)O1` (stereo not drawn) came in with an IC50 of 23.1 µM.
Consider `C=C(C)C1Cc2c(cc3occ(-c4ccc(O)cc4O)c(=O)c3c2O)O1` (stereo not drawn), for which the IC50 turned out to be 15.7 µM.
The result for `CC(C)(O)C1Cc2c(O)ccc(-c3coc4cc(O)cc(O)c4c3=O)c2O1` (stereo not drawn) reads 6.9 µM; that for `COc1cc2c(c3occ(-c4ccc(OCc5ccccc5)cc4OCc4ccccc4)c(=O)c13)C(=O)CC(C)(C)O2`, 31 µM; that for `COc1cc2c(c3occ(-c4ccc(OCc5ccccc5)cc4OCc4ccccc4)c(=O)c13)C=CC(C)(C)O2`, 27.4 µM.
